# Measurements reported in US20230303553A1, “CDK6/DYRK2 DUAL-TARGET INHIBITOR, AND PREPARATION METHOD THEREFOR AND USE THEREOF” (JIANGSU TASLY DIYI PHARMACEUTICAL CO., LTD., priority 2021, published 2023).
# Assays:
# [1] = system: human breast cancer (MCF-7); experiment: MTT cancer cell proliferation, MCF-7; type: cell-based; settings: MCF7, MTT, 72 hours, read-out: IC50 proliferation MCF-7
# [2] = system: triple negative breast cancer (MDA-MB-231) cell line; experiment: MTT cancer cell proliferation, MDA-MB-231; type: cell-based; settings: Homo sapiens, MDA-MB-231, read-out: IC50 proliferation MDA-MB-231; MTT, 72 hours
# [3] = system: multiple myeloma (RPMI8226) cell line; experiment: MTT cancer cell proliferation, RPMI8226; type: cell-based; settings: Homo sapiens, RPMI-8226; MTT, 72 hours; read-out: IC50 proliferation RPMI8226
# [4] = system: leukemia (K562) cell line; experiment: MTT cancer cell proliferation, K562; type: cell-based; settings: Homo sapiens, K562; MTT, 72 hours; read-out: IC50 proliferation K-562
# [5] = system: gastric cancer (MGC-803) cell line; experiment: MTT cancer cell proliferation, MGC-803; type: cell-based; settings: Homo sapiens, MGC-803; MTT, 72 hours; read-out: IC50 proliferation MGC-803
# [6] = system: ovarian cancer (SK-OV-3) cell line; experiment: MTT cancer cell proliferation, SK-OV-3; type: cell-based; settings: Homo sapiens, SK-OV-3; MTT, 72 hours; read-out: IC50 proliferation SK-OV-3
# [7] = system: colon cancer (HT-29) cell line; experiment: MTT cancer cell proliferation, HT-29; type: cell-based; settings: Homo sapiens, HT-29; MTT, 72 hours; read-out: IC50 proliferation HT-29
# [8] = system: liver cancer (HepG2) cell line; experiment: MTT cancer cell proliferation, HepG2; type: cell-based; settings: Homo sapiens, HepG2; MTT, 72 hours; read-out: IC50 proliferation HepG2
# [9] = system: non-small cell lung cancer (NCI-H1299) cell line; experiment: MTT cancer cell proliferation, NCI-H1299; type: cell-based; settings: Homo sapiens, NCI-H1299; MTT, 72 hours; read-out: IC50 proliferation NCI-H1299
# [10] = system: lung cancer (A-549); experiment: MTT cancer cell proliferation, A-549; type: cell-based; settings: Homo sapiens, A549; MTT, 72 hours; read-out: IC50 proliferation A-549
# [11] = system: pancreatic cancer (Panc-1) cell line; experiment: MTT cancer cell proliferation, Panc-1; type: cell-based; settings: Homo sapiens, PANC-1; MTT, 72 hours; read-out: IC50 proliferation Panc-1
# [12] = system: human glioma (U251) cell line; experiment: MTT cancer cell proliferation, U251; type: cell-based; settings: U-251, MTT, 72 hours, read-out: IC50 proliferation U251
# [13] = system: prostate cancer (Du-145) cell line; experiment: MTT cancer cell proliferation, Du-145; type: cell-based; settings: Homo sapiens, DU-145; MTT, 72 hours; read-out: IC50 proliferation Du-145
# [14] = system: prostate cancer (PC-3) cell line; experiment: MTT cancer cell proliferation, PC-3; type: cell-based; settings: Homo sapiens, PC-3; MTT, 72 hours; read-out: IC50 proliferation PC-3
# [15] = system: xenografts of human lung cancer A549; experiment: Human lung cancer A549 xenografts in nude mice; type: in vivo, BALB/c nude mice; settings: A549 xenograft, 150 mg/kg intragastric once every 2 days, 21 days
# [16] = system: xenografts of human prostate cancer PC3; experiment: Human prostate cancer PC-3 xenografts in nude mice; type: in vivo, BALB/c nude mice; settings: PC-3 xenograft, 100 mg/kg intragastric once every day, 28 days
smiles,measurement,setting,value
"CC(=O)c1c(C)c2cnc(Nc3ccc(N4CCNCC4)cn3)nc2n(C2CCCC2)c1=O [Palbociclib, reference compound]",IC50,[1],4.49 µM
same,IC50,[2],4.37 µM
same,IC50,[3],2.31 µM
same,IC50,[4],2.02 µM
same,IC50,[5],4.45 µM
same,IC50,[6],4.01 µM
same,IC50,[7],3.84 µM
same,IC50,[8],4.14 µM
same,IC50,[9],4.2 µM
same,IC50,[10],4.23 µM
same,IC50,[11],4.16 µM
same,IC50,[12],4.35 µM
same,IC50,[13],4.57 µM
same,IC50,[14],4.57 µM
same,relative tumor proliferation rate T/C(%),[15],39.6%
same,tumor growth inhibition rate,[15],60.4%
same,relative tumor proliferation rate T/C(%),[16],35.5%
same,tumor growth inhibition rate,[16],64.5%
